# From a melting point compilation (Tetko et al.; mined from patent text by program, amines drawn as free bases though some values may be those of a salt)
row,melting point [°C],SMILES
1,41 to 43,CCCCCCCCCCCCc1cc(Cc2ccccc2)on1
2,102 to 103,CCOc1cccc(-c2nc3n(n2)CCc2ccccc2-3)c1
3,204 to 206,O=C(CN1CCOCC1)Oc1ccc2c(=O)c3c(oc2c1)C(=Cc1ccccc1)CC3
4,104 to 106,O=C1c2cc(OCc3ccc4ccccc4n3)ccc2CC1Cc1ccccc1 (centres undefined)
5,128 to 129,CCCCc1c(/C=C/C(=O)NCCCCCCc2cncnc2)cc(OC)c2ccccc12
6,190 to 192,CCC(C)(C)c1ccc(OCCCNC(=O)c2cc(NC(=O)C(Cl)(Cl)Cl)c3ccccc3c2O)c(C(C)(C)CC)c1
7,134 to 135,Fc1ccccc1C(Cl)(c1ccccc1)c1ccccc1
8,86 to 90,CC1CN2N=C(c3cccc(C(F)(F)F)c3)C=CC2=N1 (centres undefined)
9,142 to 145,CCCCC(=N)NC(=S)Nc1cccc(Cl)c1
10,115 to 117,Cc1ccccc1C(=O)c1ccsc1C(=O)O
11,169 to 172,COc1ccccc1-c1c(C)c(C)c2cnc(Nc3ccc(N4CCOCC4)cc3)nn12
12,176,COc1ccc(C2COc3c(ccc(O)c3O)C2)cc1OC (centres undefined)
13,52.5 to 54,CS(=O)(=O)C(=[N+]=[N-])C(=O)CCc1ccccc1
14,182,CC(c1ccc(C(=O)O)cc1)N(C)c1ccc(Br)cc1OCc1ccccc1 (centres undefined)
15,178 to 181,CCCc1c(OCCCCCc2c(Cl)ccc(O)c2O)ccc(C(=O)O)c1O
16,280 to 286,COC(=O)c1nc(C)c2[nH]c3ccccc3c2c1I
17,141 to 144,NC(=O)CN(CCCCCCNc1nsc2nccn12)S(=O)(=O)c1cccc2ccccc12
18,153 to 155,CC(=O)Nc1ccccc1CSc1nccn1-c1ccncc1
19,194 to 195,COc1cc2c(=O)n(CCN(C)C)c3c(cnc4cccc([N+](=O)[O-])c43)c2cc1OC

row,melting point [°C],SMILES
1,167 to 170,O=C1N/C(=C\C2CC2)C(O)=C1c1ccccc1
2,127 to 128,CC(=O)Oc1ccc(C=Cc2ccc3ccccc3n2)cc1
3,174 to 175,O=C(ON1C(=O)CCC1=O)c1ccccn1
4,173 to 175,CS(=O)(=O)c1nc(O)nn1-c1ccccc1
5,196 to 197,CSCc1cnc2ccccc2c1O
6,167 to 168,CC1(C)CC(=O)c2cccc(C(=O)O)c2C1
7,194 to 195,O=C(CO)c1c[nH]c2cc(OCc3ccccc3)ccc12
8,147 to 149,CCN(CC)c1ccc(NC(=S)N(C)N)cn1
9,154 to 155,CSc1nc2ccc(Cl)cc2cc1C=O
10,91 to 92.5,CCCCc1nnc(-c2ccco2)n1Cc1ccc([N+](=O)[O-])cc1
11,108 to 110,COc1ccc(Nc2nc(C=O)cs2)cc1
12,138 to 140,CC(C)(C)OC(=O)N1CCC(Oc2ccc(C(=O)Cc3ccccn3)cc2)CC1
13,132 to 133,Cc1cccc(COc2cccc(OCc3ccc(C(C)C)cc3)c2)c1C(=O)O
14,104 to 105,C#CCN1C(=O)c2cccc3c2N(CC3)c2ccccc21
15,216 to 218,COc1nc2ccccc2nc1NC(=O)N1CCN(c2cc([N+](=O)[O-])cc([N+](=O)[O-])c2)CC1
16,295 to 296,CC(=O)Nc1ccc2c(c1)-n1cc(C(=O)O)nc1CO2
17,135 to 136,N#CC(Cc1c[nH]cn1)(c1ccccc1)c1ccc(Cl)cc1 (centres undefined)
18,75 to 77,COc1cccc(NC(=O)c2ccccc2N)c1
19,157 to 158,O=C(Cn1c(-c2cccc(Br)c2)nc2cccnc21)N1CCCCC1

# Second part, the compound before the results:
row,SMILES,melting point [°C]
1,O=C(O)COc1cccc2cc(COCC(c3ccccc3)c3ccccc3)oc12,141 to 142
2,COc1ccc2c(c1)CC(COS(=O)(=O)c1ccc(C)cc1)CC2 (centres undefined),64 to 66
3,O=C(Nc1ccc2cc(CN3CCCC3)ccc2c1)N1CCC(c2ccc(Cl)cc2)CC1,209 to 211
4,COc1ccc2c(c1OC)C(C)NC(=O)N2 (centres undefined),210 to 212
5,CC1(C)CCC(C)(C)c2cc(C(C)(O)C(=O)O)ccc21 (centres undefined),149 to 150
6,COC(=O)c1ccc(-c2ccc(C(CC3CCOCC3)c3ccc(S(=O)(=O)C4CC4)cc3)[nH]2)nc1 (centres undefined),150 to 152
7,CC(C)(C)c1ccc(C(=O)CCCN2CCC(C(=O)c3nc4ccccc4n3Cc3ccc(F)cc3)CC2)cc1,105 to 106
8,Cc1nc(N)sc1S(=O)(=O)NCCO,151
9,Cc1cc(Cl)cc(Cl)c1CNc1c(N[C@H](C)C(C)(C)C)c(=O)c1=O,> 300
10,CC(C)Nc1c(-c2ccc(C#N)cc2)c(Cl)nc2ncnn12,190
11,COc1cn(-c2ccc(N3CCOCC3)c(F)c2F)nc(-c2ccnn2-c2ccccc2)c1=O,182 to 183
12,Cc1c[nH]c(=O)n(-c2cc(C(=O)OC(C)C)c(Cl)cc2F)c1=O,170 to 173
13,O=C(Nc1ccc(C(=O)N2Cc3ccccc3Cc3ccccc32)cc1)c1sc2ccccc2c1Cl,252 to 254
14,Clc1nc2cc3c(cc2s1)OCO3,131 to 132
15,Cc1nc(N2CCCC(Cc3ccc(C(F)(F)F)cc3)C2=O)sc1C(=O)NCc1cccc(F)c1 (centres undefined),177 to 178
16,CC1Nc2ccc(-c3ccc(F)c(Cl)c3)cc2C(C)(C)O1 (centres undefined),173 to 175
17,COc1ccc(CCNC(=O)c2ccc(S(=O)(=O)NC(=O)c3ccc(C(=O)NCCO)nc3)cc2)cc1OC,201 to 203
18,COC(=O)c1ccsc1N/C=C(\C#N)C(=O)OC(C)(C)C,154 to 157
19,Cc1nc(C(CC(C)C)Nc2c(C#N)cnn3cccc23)sc1C (centres undefined),138
20,COc1cc2nc(N3CCN(C(=O)C=Cc4ccc(N(C)C)cc4)CC3)nc(N)c2cc1OC,288 to 289
21,CC(=O)SC(CC(=O)c1ccc(Oc2ccc(Cl)cc2)cc1)C(=O)O (centres undefined),91 to 94

row,SMILES,melting point [°C]
1,CN(C(CCn1c(=O)cc(Cl)[nH]c1=O)C(=O)NO)S(=O)(=O)c1ccc(Oc2cccc(F)c2)cc1 (centres undefined),147 to 148
2,Oc1c2c(nn1-c1ccc(F)cc1)CCc1cc(F)ccc1-2,220 to 221
3,CCCCCCCCCCCCCCCCOC(=O)c1ccc(-c2ncc[nH]2)nc1,97 to 98
4,CCCCCc1nc(C(=O)OCC)c(C)[nH]1,89 to 90
5,Cc1oc(-c2ccc(Cl)cc2)cc1C(=O)N[C@H](C)[C@](O)(Cn1cncn1)c1ccc(F)cc1F,189 to 190
6,CCCCC=C(c1ccccc1N1CCCCC1)C(C(N)=O)c1ccc(C(=O)OCC)cc1 (centres undefined),83 to 85
7,Brc1cc(Br)cc(Cc2cc(Br)cc(Br)c2)c1,196
8,CC1(C)CCC(C)(C)c2cc(C=O)c(C#C[Si](C)(C)C)cc21,78.4 to 82
9,COC(=O)[C@@H]1C[C@H](OS(C)(=O)=O)C(=O)[C@H]2[C@@]1(C)CC[C@H]1C(=O)O[C@H](c3ccoc3)C[C@]21C,147 to 150
10,CC(=O)Oc1c(C)c(C)c2c(c1C)CCC(C)(C=O)O2 (centres undefined),88 to 90
11,CCCc1c(OCCCCCOc2ccc3cc(OCC(=O)OCC)ccc3c2CCC(=O)OCC)ccc2c1OCCC2=O,100 to 102
12,CCCCCCCCCCCCCCCCOc1ccc(OCC(=O)O)cc1,125 to 127
13,O=C(NC(Cc1ccccc1)C(=O)O)OCc1ccc(CCOc2ccccc2)cc1 (centres undefined),150 to 152
14,Nc1ccc2ccc(Oc3ccc(Cl)c(Cl)c3)nc2n1,206
15,CCCCc1nc(=O)c2cc(-c3nnn[nH]3)ccc2[nH]1,225
16,O=C(NC(Cc1ccccc1)C(=O)O)c1ccc(-c2cnc(OCc3ccccc3)nc2)cc1 (centres undefined),184
17,COc1ccc(CCNC(=O)CN(C(=O)OCc2ccccc2)c2ccc(C)cc2)cc1OC,81 to 85
18,Cc1ccc(C(=O)Nc2c(NC(=O)CCl)ccc3c2C(=O)c2ccccc2C3=O)cc1,198 to 199
19,C#CCOc1cc(OCC=C)ccc1-c1nc2ncccc2[nH]1,210
20,O=C(CC(=O)C1CC1)c1cnccn1,111 to 112
21,N#Cc1cccc(CN2CCN(c3ccc(N)cc3)CC2)c1,79 to 81

row,SMILES,melting point [°C]
1,C=CS(=O)(=O)NCCCc1ccc(C2=NNC(=O)CC2)cc1,133 to 135
2,CCC(=O)OCC(=O)C1(OC(=S)CC)CCC2C3CC(C)C4=CC(=O)C=CC4(C)C3C(O)CC21C (centres undefined),117 to 119
3,O=S1(=O)NC(Cc2ccccc2)Nc2ccc(S(=O)(=O)N3CCCCC3)cc21 (centres undefined),242 to 244
4,O=C1NC(=O)C(Cc2ccc(N3CCC(NC[C@H](O)COc4cccnc4)CC3)cc2)S1 (some centres undefined),130 to 132
5,COC(=O)c1ccc2c(=O)[nH]c(=O)n(CCCCBr)c2c1,184 to 185
6,N#Cc1cccc2c1NC(=O)C2c1ncnc2c1cnn2C1CCCCC1 (centres undefined),> 300
7,Cc1noc(NS(=O)(=O)c2cc(Br)c(Br)s2)c1Br,153 to 155
8,COC(=O)C(=CN(C)C)N(C)c1cc(-c2ccc(Cl)cc2)on1,190
9,COc1ccc(-c2nc(S(=O)(=O)C(C)C)[nH]c2-c2ccncc2)cc1,262 to 266
10,COC(=O)c1c(OC)cc(C(F)(F)F)nc1C(F)(F)F,101 to 103
11,CCOc1ccc2c(c1)n(C1CCCCC1)c(=O)n2Cc1ccc(NC(=O)N(CC)CC)cc1OC,158
12,O=C(O)CNC(=O)[C@H]1CC[C@H](C(=O)N2CCN(C3CCNCC3)CC2)CC1,260 to 270
13,O=C(NCc1cn(-c2ccc(N3CCSCC3)c(F)c2)nn1)c1cnccn1,216 to 218
14,CC1(C)OC(=O)C(C)(N=Nc2ccc(F)cc2Br)C(=O)O1,92 to 93
15,CCCCCCCOc1cc2c(cc1/C(C)=C/c1ccc(C(=O)O)cc1)C(C)(C)CCCS2(=O)=O,153 to 154
16,COc1cc(-c2cc(=O)c3ccc(OCC4CO4)cc3o2)cc(OC)c1OC (centres undefined),187 to 188
17,CNC(=O)c1cc2nc(C(F)(F)F)ccc2c(Cl)c1NC(=O)c1cc(C(F)(F)F)nn1-c1ncccc1Cl,235 to 237
18,COc1ccc2[nH]nc(N3CCNCC3)c2c1,163 to 169
19,O=C(Nc1cccnc1)c1cccc(-c2cccc3oc(Cc4cccc(C(F)(F)F)c4)cc23)c1,127 to 128
